Test results from patent US11407761B2, “Derivative of β-apopicropodophyllin and method of preparing thereof” (J&C Sciences, priority 2020, dated 2022).

Legend:
A549 = test: PrestoBlue cell viability, A549; assay type: cell-based, Human; details: A549, 48 h, lung
Protocol: (§1) Human lung cancer cells A549, NCl-H460 and 7 cancer cell lines were cultured in RPMI 1640 medium containing 10% FBS (Gibco, USA) and 1% penicillin-streptomycin. Human colon cancer cell HCT-116 cell line was cultured in McCoy's 5A medium containing 10% FBS (Gibco, USA) and 1% penicillin-streptomycin. Human leukemia cancer cell HL-60 cell line was cultured in IMDM medium containing 20% FBS (Gibco, USA) and 1% penicillin-streptomycin. Human normal cell line WI-38 was cultured in MEM containing 10% FBS (Gibco, USA), 1% penicillin-streptomycin, and 1% Non-Essential Amin Acids solution. Human normal cell line HUVEC cultured in Human Endothelial Growth Medium containing. All the cells were cultured in sterilized cell culture plastic dishes or 96-well plastic plates in a humidified incubator filled with 95% air and 5% CO2 gas and maintained at a temperature of 37° C.
(§2) First, the cells are seeded in a 96-well plate (Nunc, 165305) at a volume of 100 μl, and then cultured in an incubator overnight to confirm that they grow well on the plate. Depending on the concentration of the drugs, each well is treated with 100 μl of the compound and then incubated to allow cells and compounds to react for 48 hrs. PrestoBlue Cell Viability Reagent (Invitrogen, A13262) was added to the compound-treated well, and then the plates were incubated in a humidified incubator at 37° C. for 30 mins. Each well was measured at a fluorescence detected with the wavelength of an excitation of 560 nm and an emission of 590 nm using by microplate reader (BioTek, Synergy H1). The IC50 value is calculated by using the Gen5 software.

H460 = test: PrestoBlue cell viability, H460; assay type: cell-based, Human; details: lung
Protocol: as §1, §2

MDA-MB-231 = test: PrestoBlue cell viability, MDA-MB-231; assay type: cell-based; details: Homo sapiens; breast, MDA-MB-231, 48 h
Protocol: as §1, §2

HCT-116 = test: PrestoBlue cell viability, HCT-116; assay type: cell-based; details: Homo sapiens; colon, HCF116 (HCT-116), 48 h
Protocol: as §1, §2

HL-60 = test: PrestoBlue cell viability, HL-60; assay type: cell-based, Human; details: Homo sapiens, HL-60, 48 h, leukemia
Protocol: as §1, §2

K562 = test: PrestoBlue cell viability, K562; assay type: cell-based, Human; details: for IC50: Homo sapiens, leukemia, K562, 48 h
Protocol: as §1, §2

WI-38 = test: PrestoBlue toxicity test, normal cells WI-38; assay type: cell-based, Human; details: WI-38, 48 h
Protocol: as §1, §2

WI-26 = test: PrestoBlue toxicity test, normal cells WI-26; assay type: cell-based, Human; details: Homo sapiens, 48 h, WI-26, 48 h
HUVEC = test: PrestoBlue toxicity test, normal cells HUVEC; assay type: cell-based, Human; details: 48 h
Protocol: as §1, §2

Row | Compound | IC50 (A549; Homo sapiens) [µM] | IC50 (H460; Homo sapiens, NCI-H460, 48 h) [µM] | IC50 (MDA-MB-231) [µM] | IC50 (HCT-116) [µM] | IC50 (HL-60) [µM] | IC50 (K562) [µM] | effects against the blood cancer cell line K562 (in words) (K562) | IC50 (WI-38; Homo sapiens) [µM] | IC50 (WI-38) [µM] | IC50 (WI-26) [µM] | IC50 (HUVEC) [µM] | IC50 (HUVEC; Homo sapiens) [µM] | IC50 (A549) [µM] | IC50 (H460; H460, 48 h) [µM]
1 | COc1cc([C@@H]2C3=C(COC3=O)Cc3cc4c(cc32)OCO4)cc(OC)c1OCC1CCCCC1 [example 4, (5S)-5-(4-Cyclohexylmethoxy-3,5-dimethoxy-phenyl)-5,9-dihydro-8H-furo[3′,4′:6,7]naphtho[2,3-d][1,3]dioxol-6-one] | 0.698 | 0.796 | > 50 | 1.57 | > 50 | 0.398 | particularly excellent effects | ≥ 50 | > 50 | ≥ 50 | > 50 | ≥ 50 | – | –
2 | C=CCCOc1c(OC)cc([C@@H]2C3=C(COC3=O)Cc3cc4c(cc32)OCO4)cc1OC [example 5, (5S)-5-(4-But-3-enyloxy-3,5-dimethoxy-phenyl)-5,9-dihydro-8H-furo[3′,4′:6,7]naphtho[2,3-d][1,3]dioxol-6-one] | ≥ 50 | ≥ 50 | > 50 | > 50 | > 50 | – | – | ≥ 50 | > 50 | ≥ 50 | > 50 | ≥ 50 | > 50 | > 50
3 | COc1cc([C@@H]2C3=C(COC3=O)Cc3cc4c(cc32)OCO4)cc(OC)c1OCc1ccc(F)cc1 [example 6, (5S)-5-[3,5-Dimethoxy-4-(4-fluorobenzyloxy)-phenyl]-5,9-dihydro-8H-furo[3′,4′:6,7]naphtho[2,3-d][1,3]dioxol-6-one] | 0.288 | 0.437 | > 50 | > 50 | > 50 | 0.247 | particularly excellent effects | ≥ 50 | > 50 | ≥ 50 | > 50 | ≥ 50 | – | –
4 | COc1cc([C@@H]2C3=C(COC3=O)Cc3cc4c(cc32)OCO4)cc(OC)c1OCc1ccc(C(F)(F)F)cc1 [example 7, (5S)-5-[3,5-Dimethoxy-4-(4-trifluoromethyl-benzyloxy)-phenyl]-5,9-dihydro-8H-furo[3′,4′:6,7]naphtho[2,3-d][1,3]dioxol-6-one] | ≥ 50 | ≥ 50 | > 50 | > 50 | > 50 | – | – | ≥ 50 | > 50 | ≥ 50 | > 50 | ≥ 50 | > 50 | > 50
5 | COc1cc([C@@H]2C3=C(COC3=O)Cc3cc4c(cc32)OCO4)cc(OC)c1OCc1ccc(C)cc1 [example 8, (5S)-5-[3,5-Dimethoxy-4-(4-methyl-benzyloxy)-phenyl]-5,9-dihydro-8H-furo[3′,4′:6,7]naphtho[2,3-d][1,3]dioxol-6-one] | ≥ 50 | ≥ 50 | > 50 | > 50 | > 50 | – | – | ≥ 50 | > 50 | ≥ 50 | > 50 | ≥ 50 | > 50 | > 50
